Paper PMC6767204, “Synthesis and Biological Evaluation of Disubstituted Pyrimidines as Selective 5-HT2C Agonists” (Molecules, 2019)
Counter-ions that a name gives are not always drawn. Like-named read-outs stand apart in the source and are kept apart here.

Columns and labels:
5-HT2C receptor [1] = target: T1, 5-HT2C receptor (Homo sapiens, UniProt P28335); assay: 5-HT2C receptor cell-based functional assay (agonist mode, fluorescence-based); settings: for %activation: Table 2, serotonin as reference compound
T1 sequence (P28335 33-458): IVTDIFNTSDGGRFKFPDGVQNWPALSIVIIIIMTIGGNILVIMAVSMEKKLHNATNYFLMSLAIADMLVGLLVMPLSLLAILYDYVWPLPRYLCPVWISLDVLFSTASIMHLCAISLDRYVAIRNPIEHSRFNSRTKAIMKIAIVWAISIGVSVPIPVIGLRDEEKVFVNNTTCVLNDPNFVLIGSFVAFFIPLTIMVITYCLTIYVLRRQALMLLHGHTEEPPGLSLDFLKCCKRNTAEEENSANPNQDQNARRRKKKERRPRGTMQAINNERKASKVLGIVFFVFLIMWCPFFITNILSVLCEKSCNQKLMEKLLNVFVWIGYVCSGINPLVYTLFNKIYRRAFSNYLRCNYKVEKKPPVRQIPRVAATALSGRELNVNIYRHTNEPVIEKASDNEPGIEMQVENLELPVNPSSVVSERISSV
Protocol: The synthesized compounds were tested in agonist mode with the 5-HT2C receptor assay using recombinant human HEK-293 cells serviced by either Eurofins Cerep or DGMIF (Daegu-Gyeongbuk Medical Innovation Foundation). All the experiments were duplicated.

5-HT2C receptor [2] = target: T1, 5-HT2C receptor; assay: 5-HT receptor radioligand binding affinity assay, 2C; set-up: expressed in transfected cells; settings: Table 2
Protocol: Eleven dilutions (5 x assay concentration) of the test and reference compounds (Table S1) were prepared in standard binding buffer (50 mM tris(hydroxymethyl)-aminomethane–HCl (Tris-HCl), 10 mM MgCl2, 1 mM ethylenediaminetetraacetate (EDTA), pH 7.4) by serial dilution: 0.05 nM, 0.5 nM, 1.5 nM, 5 nM, 15 nM, 50 nM, 150 nM, 500 nM, 1.5 μM, 5 μM, and 50 μM. The radioligand (Table S1) was diluted to five times the assay concentration in standard binding buffer. Aliquots (50 μL) of the radioligand were dispensed into the wells of a 96-well plate containing 100 μL of standard binding buffer. Triplicate aliquots (50 μL) of the test and reference compound dilutions were then added. Finally, crude membrane fractions (50 μL) of cells (HEK293 or CHO) expressing human recombinant receptors were dispensed into each well. A total 250 μL of the reaction mixtures was incubated at room temperature and shielded from light for 1.5 h, then harvested by rapid filtration onto Whatman GF/B glass fiber filters presoaked with 0.3% polyethyleneimine, by using a 96-well Brandel harvester.
Four rapid washes were performed with chilled standard binding buffer (500 μL) to decrease nonspecific binding. Filters were placed in 6 mL scintillation tubes and allowed to dry overnight. The next day, 4 ml of EcoScint scintillation cocktail (National Diagnostics) was added to each tube. The tubes were capped, labeled, and counted by liquid scintillation counting. The filter mats were dried, and the scintillant was melted onto the filters, then the radioactivity retained on the filters was counted in a Microbeta scintillation counter. The IC50 values were obtained by using the Prism 4.0 program (GraphPad Software, San Diego, CA) and converted into Ki values. Each compound was tested in triplicate at least.
3. Radioligands and reference compounds for binding assay
Table S1. A list of 5-HT receptor radioligands and reference compounds for binding assay.
Receptor subtype Radioligand Reference compound
1A [3H]8-OH-DPAT Methysergide
2A [3H]Ketanserin Chlorpromazine
2C [3H]Mesulergine Chlorpromazine

[3] = HEK293, read-out: %activation (10 μM)
[4] = HEK293, read-out: %activation (10 μM), 10 μM, recombinant human HEK-293 cells, Table 1

Row | SMILES | activation at 10 µM (5-HT2C receptor [1]; [3]) [%] | also measured
1 | C[C@@H]1CNCCN1c1ncc(OCCc2cccc(F)c2)cn1 [9i] | 40 | –
2 | Fc1cccc(Oc2cnc(N3CCCNCC3)nc2)c1 [9m] | 16 | –
3 | C[C@@H]1CNCCN1c1ncc(OCc2ccc(F)cc2)cn1 [9k, (R)-4-(5-((4-fluorobenzyl)oxy)pyrimidin-2-yl)-3-methylpiperazin-1-ium∙hydrochloride] | 48 | –
4 | Fc1ccc(Oc2cnc(N3CCNCC3)nc2)cc1 [9d] | – | activation at 10 µM (5-HT2C receptor [1]; [4]): 5%
5 | C[C@@H]1CNCCN1c1ncc(Oc2ccc(F)cc2)cn1 [9j] | 26 | –
6 | Fc1ccc(COc2cnc(N3CCNCC3)nc2)cc1 [9e, 4-(5-((4-fluorobenzyl)oxy)pyrimidin-2-yl)piperazin-1-ium∙hydrochloride] | – | activation at 10 µM (5-HT2C receptor [1]; [4]): 18%
7 | Fc1cccc(COc2cnc(N3CCCNCC3)nc2)c1 [9n, 4-(5-((3-fluorobenzyl)oxy)pyrimidin-2-yl)-1,4-diazepan-1-ium∙hydrochloride] | -1 | –
8 | Fc1cccc(CCOc2cnc(N3CCCNCC3)nc2)c1 [9o] | 3 | –
9 | C[C@@H](Oc1nc(N[C@H]2CCNC2)ncc1F)c1ccc(F)cc1 [10j, 5-Fluoro-4-((R)-1-(4-fluorophenyl)ethoxy)-N-((S)-pyrrolidin-3-yl)pyrimidin-2-amine] | – | %activation (5-HT2C receptor [1]): 0.1%
10 | C[C@@H](Oc1nc(N2CCC3(CCNC3)C2)ncc1F)c1cccc(F)c1 (stereo partly drawn) [10b, 2-(5-fluoro-4-((R)-1-(3-fluorophenyl)ethoxy)pyrimidin-2-yl)-2,7-diazaspiro[4.4]nonane] | – | %activation (5-HT2C receptor [1]): 78.2%
11 | C[C@@H](Oc1nc(N2CCC3(CCNC3)C2)ncc1F)c1ccc(F)cc1 (stereo partly drawn) [10g, 2-(5-fluoro-4-((R)-1-(4-fluorophenyl)ethoxy)pyrimidin-2-yl)-2,7-diazaspiro[4.4]nonane] | – | Ki (5-HT2C receptor [2]): 232 nM
12 | C[C@@H](Oc1nc(N[C@@H]2CCNC2)ncc1F)c1ccc(F)cc1 [10i, 5-fluoro-4-((R)-1-(4-fluorophenyl)ethoxy)-N-((R)-pyrrolidin-3-yl)pyrimidin-2-amine] | – | Ki (5-HT2C receptor [2]): 120 nM
13 | C[C@H]1CNCCc2ccc(Cl)cc21 [Lorcaserin (1), Lorcaserin, reference compound] | – | %activation value at 1 μM (5-HT2C receptor [1]; 1 μM, Table 1 footnote a): 94^a %
14 | Fc1ccc(CCOc2cnc(N3CCCNCC3)nc2)cc1 [9r] | -1 | –
